The NIST ThermoML archive (doi:10.1016/j.jct.2018.12.026)
Numbers after ± are expanded uncertainties.

Columns and labels:
[1] = Liquid; Ebulliometric method (Recirculating still)
[2] = refractive index (Na D-line) (dimensionless); settings: 293.15 K; 101.33 kPa; Liquid; Standard Abbe refractometry

Structure (SMILES)	Normal boiling temperature [1] [°C]	refractive index [2]
CCO [ethanol]	78.40 ± 0.2	1.3608 ± 0.0009
CCOC(=O)CC [ethyl propanoate]	99.10 ± 0.2	1.3839 ± 0.0005
CCC(=O)O [propanoic acid]	141.20 ± 0.2	1.3872 ± 0.0008
O [water]	100.00 ± 0.2	1.333 ± 0.0005
